In publication PMC5702336, “Critical Role of Hepatic Cyp450s in the Testis-Specific Toxicity of (5R)-5-Hydroxytriptolide in C57BL/6 Mice” (Frontiers in Pharmacology, 2017):
“Also recorded” adds a separate entry of the source.

Assays:
rat liver microsomes = test: Chemical inhibition study of LLDT-8 metabolism with selective CYP inhibitors; format: in vitro ADME; details: LLDT-8 2 μM, 0.5 and 1 h, residual LLDT-8 by LC-MS/MS
Protocol: The chemical inhibition assay was performed as previously reported (Li et al., [2008]). A 400 μl typical incubation mixture contained 0.2 mg rat liver microsomes (20 mg/ml, Cat. No: LM-DS-02M, Lot. No: BDVH, Research Institute for liver Diseases, Shanghai, China), 2 μM LLDT-8, 5 mM MgCl2, 1 mM NADPH (Cat. No: 10107824001, Lot. No: 20595625, Sigma, USA) and selective inhibitors of each CYP isoforms in a 100 mM phosphate buffer (pH 7.4). The inhibitors used were as follows: quercetin (2 μM) for CYP1A and CYP2C8, 8-methoxypsoralen (2.5 μM) for CYP2A6, sulfaphenazole (10 μM) for CYP2C9, omeprazole (20 μM) for CYP2C19, quinidine (10 μM) for CYP2D6, clomethiazole (50 μM) for CYP2E1, ketoconazole (1 μM) for CYP3A4 and aminobenzotriazole (50 μM, a broad CYP inhibitor) (Tsyrlov et al., [1994]; Li et al., [2008]). After incubation for 0, 0.5, and 1 h, 100 μl supernatant was collected and quenched by the addition of 100 μl of ice-cold acetonitrile. The mixtures were then centrifuged for 10 min at 20,000 × g. An aliquot of the supernatant was analyzed by LC-MS/MS to monitor the residual LLDT-8 without extraction.

mice testes = test: Testicular toxicity comparison between triptolide and LLDT-8 (15 days by gavage, H&E); format: in vivo, mouse; details: 0.25 mg/kg and 0.5 mg/kg by gavage for 15 days
Protocol: For toxicity experiments, mice (n = 3 for each group) were treated with tritpilide (0.125, 0.25, 0.5mg/kg), LLDT-8 (0.125, 0.25, 0.5mg/kg) consecutively administered by gavage for 15 days. The control group received saline. Mice were sacrificed on the 15th day post-administration and blood, liver, kidney, spleen, testis and epididymis were collected. The main lobe of liver, kidney, spleen and epididymis were fixed in 10% neutral buffered formalin for histological examination, the left testicle was fixed in Davidson’s buffer for 16 hours followed by 10% neutral buffered formalin. Tissue sections were stained with hematoxylin and eosin (H&E). Remaining tissues were stored at -80 °C for RNA and protein extraction.
Supplementary Figure S1 Comparison of testicular toxicity between triptolide(TL) and LLDT-8. Mice (n=3) were weighted before sacrificed on the 15th day post-administration of triptolide, LLDT-8 or saline. The testes were collected and weighted. […] (G-H) Comparison of epididymis weight between triptolide and LLDT-8. Significant difference was determined by one-way Anova, mean ± SD. * p<0.05, *** p<0.001 vs Saline group. # p<0.05, ## p<0.01, ### p<0.001 vs T8 group at the same dosage.

SMILES | effect of CYP inhibitor on the metabolism of LLDT-8 (rat liver microsomes) | testis morphology (H&E) (mice testes)
Nn1nnc2ccccc21 [aminobenzotriazole] | inhibited | –
Cc1ncsc1CCCl [clomethiazole] | inhibited; also recorded: seems to completely inhibit | –
CC(=O)N1CCN(c2ccc(OCC3COC(Cn4ccnc4)(c4ccc(Cl)cc4Cl)O3)cc2)CC1 (stereo not drawn) [ketoconazole] | inhibited | –
COc1ccc2[nH]c([S+]([O-])Cc3ncc(C)c(OC)c3C)nc2c1 (stereo not drawn) [omeprazole] | inhibited | –
C=C[C@H]1C[N@@]2CC[C@H]1C[C@@H]2[C@@H](O)c1ccnc2ccc(OC)cc12 [quinidine] | inhibited | –
CC(C)[C@]12O[C@H]1[C@@H]1O[C@]13[C@]1(O[C@H]1C[C@H]1C4=C(CC[C@@]13C)C(=O)OC4)[C@@H]2O [triptolide] | – | induced severe testicular injury
